Experimental data published in patent US20240366652A1, “OSTEOARTHRITIS PROGRESSION INHIBITOR AND PROGRESSION INHIBITION KIT” (KYUSHU UNIVERSITY, NATIONAL UNIVERSITY CORPORATION, priority 2021, published 2024).

Columns and labels:
IL6 = IL6 mRNA expression in LPS-stimulated human OA cartilage cells (quantitative real-time PCR); type: cell-based; settings: Amlexanox 100 μM and/or hyaluronic acid 1 mg/mL, 48 hours, LPS 10 μg/mL 6 hours, GAPDH internal standard
Description: (§1) Human cartilage cells were isolated and cultured from an excised cartilage fragment that is usually discarded after artificial knee joint replacement surgery. All donors provided consent to participate in the clinical research approved by the Ethics Review Committee. Due consideration was given to personal information of all donors in handling. Donor's knee joints were OA grade (Kellgren-lawrence) III to IV on X-rays.
(§2) Amlexanox (concentration in medium: 100 μM) and hyaluronic acid (concentration in medium: 1 mg/mL, weight-average molecular weight: 500,000 or more and 1,490,000 or less) were added to human OA cartilage cells and incubated for 48 hours. As a control, those that had been incubated for 48 hours without any administration, and those that were administered with Amlexanox (concentration in medium: 100 μM) and hyaluronic acid (concentration in medium: 1 mg/mL, weight-average molecular weight: 500,000 or more and 1,490,000 or less) and incubated for 48 hours were also prepared.
(§3) Human OA cartilage cells into which Amlexanox and hyaluronic acid were added were stimulated with lipopolysaccharide (LPS) (concentration in medium: 10 μg/mL) and incubated for 6 hours. Thereafter, mRNA was recovered from the above cells. After reverse transcription, quantitative real-time PCR was performed using LightCycler 2.0 system (Roche). GAPDH was used as an internal standard.

MMP13 = MMP13 mRNA expression in LPS-stimulated human OA cartilage cells (quantitative real-time PCR); type: cell-based; settings: Amlexanox 100 μM and/or hyaluronic acid 1 mg/mL, 48 hours, LPS 10 μg/mL 6 hours, GAPDH internal standard
Description: as §1, §2, §3

ADAMTS4 = ADAMTS4 mRNA expression in LPS-stimulated human OA cartilage cells (quantitative real-time PCR); type: cell-based; settings: Amlexanox 100 μM and/or hyaluronic acid 1 mg/mL, 48 hours, LPS 10 μg/mL 6 hours, GAPDH internal standard
Description: as §1, §2, §3

[1] = test system: OA-induced mice (DMM model); test: Cartilage degeneration in OA-induced mice (DMM model), OARSI histopathological score after intraarticular administration; type: in vivo; settings: intraarticular 10 μL every 5 days for 8 weeks, Amlexanox 100 μM, hyaluronic acid 10 mg/mL, versus physiological saline group, 8 weeks after surgery
Description: OA was induced in 12-week-old male mice (wild type mice and GRK5KO mouse) by removing the ligament, which connects and secures the medial meniscus to the tibia, to cause the knee joint instability (DMM model) (hereinafter, referred to as a “DMM group” in some cases). In addition, as a control, mice subjected to a sham operation by the same method without removing the ligament were also prepared (hereinafter, referred to as a “sham group” in some cases). Subsequently, immediately after the OA induction, four groups were classified as follows: a group administered with physiological saline (10 μL) every 5 days for 8 weeks; a group administered with a hyaluronic acid solution (10 mg/mL, 10 μL); a group administered with an Amlexanox solution (100 μM, 10 μL), a group administered with a mixed solution (10 μL) of
Amlexanox (100 μM) and hyaluronic acid (10 mg/mL) (see FIG. 2A). Knee joint tissue sections of each group at a time point of 8 weeks after OA induction surgery were stained with safranin O. The results are shown in FIG. 2B (staining image).
In addition, the severity degree of OA was quantified by evaluating the stained sections based on histopathological grade recommended by OARSI.
Using the same method as in Example 2, a mixed solution of Amlexanox (100 μM) and hyaluronic acid (10 mg/mL) was administered to OA-induced mice every […] for 8 weeks (see FIG. 3A). […]

[2] = after intraarticular administration; cited from earlier work
GRK5 = settings: reported in Reference 2; cited from earlier work

CC(C)c1ccc2oc3nc(N)c(C(=O)O)cc3c(=O)c2c1 [Amlexanox, 2-amino-7-isopropyl-5-oxo-5H-[1]benzopyrano [2,3-b]-pyridine-3-carboxylic acid]
IL6 expression, control ratio (IL6): 32.99% | MMP13 expression, control ratio (MMP13): 43.83% | ADAMTS4 expression, control ratio (ADAMTS4): 42.04% | OARSI score, control group ratio [1]: 56.95% | half-life in joint fluid / in the joint [2]: several hours | GRK5 inhibition (selectivity, in words) (GRK5): selectively inhibits GRK5
